Drawing on article PMC9081825 (2022), this text covers binding for five molecules.

Assay in all cases: QD fluorescence recovery on release from amSWCNT
Test [1] deals with A08min-QDs (multi-QD mixture, nanocomplex 1) (DNA, aptamer) GGCAGTGTGGGCGAATCTATGCGTACCGTTCGATATCGTG
Particulars: 137 mM NaCl, 2.7 mM KCl; phosphate buffer pH 7.4; tested at 1.5 μM; 530 nm.

In test [2] the test system is A08min-GQD (nanocomplex 3) (DNA, aptamer) GGCAGTGTGGGCGAATCTATGCGTACCGTTCGATATCGTG
Particulars: 137 mM NaCl, 2.7 mM KCl; phosphate buffer pH 7.4; OTA 0-1.2 μM; 525 nm; 0.12 mg/mL amSWCNT.

Test [3] relates to A08min-RQD (nanocomplex 4) (DNA, aptamer) GGCAGTGTGGGCGAATCTATGCGTACCGTTCGATATCGTG
The conditions noted are these: 137 mM NaCl, 2.7 mM KCl; phosphate buffer pH 7.4; OTA 0-1.2 μM; 650 nm; 0.12 mg/mL amSWCNT.

Test [4] deals with 1.12.2-GQD (nanocomplex 3) (DNA, aptamer) GATCGGGTGTGGGTGGCGTAAAGGGAGCATCGGACA
Particulars: 120 mM NaCl, 5 mM KCl, 10 mM CaCl2, 10 mM HEPES pH 7.0 (buffer listed for 1.12.2 in supplement).

The test system of test [5] is 1.12.2-RQD (nanocomplexes 4 and 5) (DNA, aptamer) GATCGGGTGTGGGTGGCGTAAAGGGAGCATCGGACA
Particulars: 120 mM NaCl, 5 mM KCl, 10 mM CaCl2, 10 mM HEPES pH 7.0 (buffer listed for 1.12.2 in supplement).

For `CC(=O)CC(c1ccccc1)c1c(O)c2ccccc2oc1=O` (centres unmarked), in test [1], the binding result is “no”.

Take `CCCC[C@@H](C)[C@@H](OC(=O)C[C@@H](CC(=O)O)C(=O)O)[C@H](C[C@@H](C)C[C@H](O)CCCC[C@@H](O)C[C@H](O)[C@H](C)N)OC(=O)C[C@@H](CC(=O)O)C(=O)O`: the binding result in test [1] is recorded as “no”.

For `C[C@@H]1Cc2c(Cl)cc(C(=O)N[C@@H](Cc3ccccc3)C(=O)O)c(O)c2C(=O)O1`, the binding entry in test [2], in test [3], in test [4] and in test [5] was “yes” throughout.

Take `C[C@@H]1Cc2ccc(C(=O)N[C@@H](Cc3ccccc3)C(=O)O)c(O)c2C(=O)O1`: the binding result in test [1] is “no”.

For `O=C1C=C2C(=CCOC2O)O1` (centres unmarked), the binding result in test [1] is on record as “no”.
